Patent publication US10363257B2 (ZENITH EPIGENETICS LTD., priority 2013, dated 2019)

Columns and labels:
[1] = biological target: T1, Brd4 bromodomain 1 (BRD4(1)) (Homo sapiens, UniProt O60885); test: Inhibition of tetra-acetylated histone H4 binding to Brd4 bromodomain 1 (TR-FRET); settings: tetra-acetylated histone H4 peptide, first bromodomain of Brd4
T1 construct: made in house; host or cells: E. coli BL21(DE3)
In short: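 His-tagged BRD4(1) from E. coli (200 nM) with biotinylated tetra-acetylated H4 peptide (25-50 nM), Eu-cryptate streptavidin and XL665 anti-His, in HEPES pH 7.4/phosphate/KF buffer, 0.2% DMSO. After 2 h at room temperature, TR-FRET 665/620 nm ratio read; IC50 from dose-response curves.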

[2] = tested on: hIL-17 mRNA; test: Inhibition of hIL-17 mRNA transcription in OKT3-stimulated peripheral blood mononuclear cells; assay type: cell-based; settings: PBMC, human peripheral blood mononuclear cells, OKT3 antibody, 6 h, read-out: IL-17 activity
Procedure: In this example, hIL-17 mRNA in human peripheral blood mononuclear cells was quantitated to measure the transcriptional inhibition of hIL-17 when treated with a compound of the invention.
Human peripheral blood mononuclear cells were plated (2.0×10^5 cells per well) in a 96-well plate in 45 μL OpTimizer T Cell expansion media containing 20 ng/ml IL-2 and penicillin/streptomycin. The cells were treated with the test compound (45 μL at 2× concentration), and then the cells were incubated at 37° C. for 1 h before addition of 10× stock OKT3 antibody at 10 μg/ml in media. Cells were incubated at 37° C. for 6 h before the cells were harvested. At time of harvest, cells were centrifuged (800 rpm, 5 min). Spent media was removed and cell lysis solution (70 μL) was added to the cells in each well and incubated for 5-10 min at room temperature, to allow for complete cell lysis and detachment. mRNA was then prepared using the “mRNA Catcher PLUS plate” (Invitrogen), according to the protocol supplied. After the last wash, as much wash buffer as possible was aspirated without allowing the wells to dry. Elution buffer (E3, 70 μL) was then added to each well. mRNA was then eluted by incubating the mRNA Catcher PLUS plate with Elution Buffer for 5 min at 68° C. and then immediately placing the plate on ice.
The eluted mRNA isolated was then used in a one-step quantitative RT-PCR reaction, using components of the Ultra Sense Kit together with Applied Biosystems primer-probe mixes. Real-time PCR data was analyzed, normalizing the Ct values for hIL-17 to an internal control, prior to determining the fold induction of each unknown sample, relative to the control.

[3] = tested on: MV4-11 cells; test: In vivo efficacy in athymic nude mouse acute myeloid leukemia xenograft model using MV4-11 cells; settings: MV4-11 AML xenograft, oral, 75 mg/kg b.i.d and 120 mg/kg b.i.d
Procedure: MV4-11 cells (ATCC) are grown under standard cell culture conditions and (NCr) nu/nu fisol strain of female mice age 6-7 weeks are injected with 5×10^6 cells/animal in 100 μL PBS+100 μL Matrigel in the lower left abdominal flank. By approximately day 18 after MV4-11 cells injection, mice are randomized based on tumor volume (L×W×H)/2) of average ˜120 mm^3. Mice are dosed orally with compound at 75 mg/kg b.i.d and 120 mg/kg b.i.d in EA006 formulation at 10 mL/kg body weight dose volume. Tumor measurements are taken with electronic micro calipers and body weights measured on alternate days beginning from dosing period. The average tumor volumes, percent Tumor Growth Inhibition (TGI) and % change in body weights are compared relative to Vehicle control animals. The means, statistical analysis and the comparison between groups are calculated using Student's t-test in Excel.

[4] = tested on: c-myc; test: Inhibition of c-myc expression (mRNA, real-time PCR) in MV4-11 cells; assay type: cell-based; settings: Human AML MV4-11 cells, 3 h, cMYC mRNA
In short: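 MV4-11 cells treated 3 h at 37° C with increasing compound concentrations or 0.1% DMSO, in triplicate. cMYC mRNA quantified by one-step TaqMan real-time PCR, Ct normalized to internal control (Cyclophilin primers used), fold expression relative to control.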

IC50 [1]: ≤ 0.3 µM
IC50 [2]: ≤ 0.3 µM
IC50 [4]: 0.3 to 3 µM
Compound: Cc1noc(C)c1-c1cc(N)c2ncn(Cc3ccccc3)c2c1 [Example Compound 7, 1-Benzyl-6-(3,5-dimethylisoxazol-4-yl)-1H-benzo[d]imidazol-4-amine]
In vivo activity [3]: Active
